{"source": "paper PMC10178091", "about": "“The GRPR Antagonist [^99mTc]Tc-maSSS-PEG2-RM26 towards Phase I Clinical Trial: Kit Preparation, Characterization and Toxicity” (Diagnostics, 2023)", "key": {"GRPR [1]": {"molecular_target": "GRPR", "set-up": "method as in PMID 33573232", "settings": "cited from earlier work"}, "[2]": {"set-up": "method as in PMID 36980517", "settings": "phase I clinical study; cited from earlier work"}, "GRPR on PC-3 cells": {"molecular_target": "T1, GRPR on PC-3 cells (Homo sapiens, UniProt P30550)", "T1 construct": "endogenous in cells; host or cells: PC-3 cells", "T1 sequence (P30550 whole entry)": "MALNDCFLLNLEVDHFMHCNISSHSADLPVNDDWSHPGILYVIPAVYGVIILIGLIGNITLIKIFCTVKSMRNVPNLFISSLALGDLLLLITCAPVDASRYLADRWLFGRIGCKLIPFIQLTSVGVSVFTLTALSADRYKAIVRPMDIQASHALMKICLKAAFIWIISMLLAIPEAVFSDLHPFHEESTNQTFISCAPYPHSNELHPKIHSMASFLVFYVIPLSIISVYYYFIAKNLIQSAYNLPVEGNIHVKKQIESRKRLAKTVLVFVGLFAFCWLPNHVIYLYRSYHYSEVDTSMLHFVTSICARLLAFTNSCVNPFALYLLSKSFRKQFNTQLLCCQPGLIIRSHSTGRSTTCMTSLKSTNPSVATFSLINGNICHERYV", "assay": "In vitro binding specificity assay on PC-3 cells, with and without pre-blocking", "settings": "1 nM", "protocol": "The radiolabeled peptide binding to GRPR was tested in PC-3 cells (GRPR +) by the addition of 1 nM of [^99mTc]Tc-maSSS-PEG2-RM26 to the cells (~10^6 cells, in triplicates), with and without pre-blocking of receptors, by the addition of 1 µM of NOTA-PEG2-RM26 (10 min at room temperature). After incubation at 37 °C for 1 h, the cells were treated with trypsin-EDTA, collected, and measured for their radioactivity content.\n(§1) Randomly selected vials were stored at 4 °C at our laboratory for long-term testing. Within 18 months of storage, the vials were radiolabeled under the same conditions mentioned earlier. Additionally, the GRPR-binding in vitro was tested on a different batch of PC-3 cells, following the same protocol mentioned earlier. The in vivo GRPR-targeting properties of [^99mTc]Tc-maSSS-PEG2-RM26 were tested on PC-3 tumor-bearing Balb/c nu/nu mice (the cells (6 × 10^6 cells/mouse) were inoculated into the mice 4 weeks prior to the experiment). On the day of the experiment, when palpable tumors developed, a group of mice (n = 4) was injected with [^99mTc]Tc-maSSS-PEG2-RM26 (30 kBq/40 pmol) and another group (n = 4) was additionally co-injected with NOTA-PEG2-RM26 (5 nmol) to block GRPR. The mice were euthanized 1 h post-injection and the organs of interest were collected, weighed, and measured for their radioactivity content."}, "GRPR [3]": {"molecular_target": "T2, GRPR (Homo sapiens, UniProt P30550)", "T2 construct": "endogenous in cells; host or cells: PC-3 xenograft tumours in Balb/c nu/nu mice", "T2 sequence (P30550 whole entry)": "as above", "assay": "Ex vivo biodistribution / in vivo GRPR targeting in PC-3 tumor-bearing mice", "set-up": "species or system Balb/c nu/nu mice", "settings": "1 h pi, kit stored 18 months, p < 0.001, n = 4", "protocol": "as §1"}, "GRPR [4]": {"test_system": "GRPR", "assay": "Ex vivo biodistribution / in vivo GRPR targeting in PC-3 tumor-bearing mice", "set-up": "species or system Balb/c nu/nu mice", "settings": "1 h pi, kit stored 18 months, p < 0.001, n = 4", "protocol": "as §1"}, "[5]": {"assay": "Ex vivo biodistribution / in vivo GRPR targeting in PC-3 tumor-bearing mice", "set-up": "species or system Balb/c nu/nu mice", "settings": "mouse, total radioactivity, 1 h pi, n = 4; for tissue to tissue ratio at 1 h: 40 pmol, ± SD", "protocol": "as §1"}}, "note": "Like-named read-outs stand apart in the source and are kept apart here. Where a SMILES comes first, the peptide text is derived from it. [ ]: non-standard residue; d: D form. The star is where a group is joined. Sta = CC(C)C[C@H](N)[C@@H](O)CC(=O)O; Mercaptoacetyl = O=C(CS)*; AEEA = NCCOCCOCC(=O)O", "data": [{"smiles": "CC(C)C[C@H](NC(=O)C[C@H](O)[C@H](CC(C)C)NC(=O)[C@H](Cc1c[nH]cn1)NC(=O)CNC(=O)[C@@H](NC(=O)[C@H](C)NC(=O)[C@H](Cc1c[nH]c2ccccc12)NC(=O)[C@H](CCC(N)=O)NC(=O)[C@@H](Cc1ccccc1)NC(=O)COCCOCCNC(=O)[C@H](CO)NC(=O)[C@H](CO)NC(=O)[C@H](CO)NC(=O)CS)C(C)C)C(N)=O", "note": "[[^99mTc]Tc-maSSS-PEG2-RM26, metal not drawn] (Mercaptoacetyl-SSS[AEEA][dF]QWAVGH[Sta]L-NH2)", "values": [{"measurement": "Equilibrium dissociation constant", "setting": "GRPR [1]", "value": "low nanomolar range"}, {"measurement": "Absorbed doses in healthy organs and tissues", "setting": "[2]", "value": "low absorbed doses"}, {"measurement": "Tolerability of single injections", "setting": "[2]", "value": "well tolerated"}, {"measurement": "Cell-associated radioactivity, non-blocked versus pre-blocked receptors", "setting": "GRPR on PC-3 cells; freshly prepared kit, 1 h at 37 °C, pre-blocking with 1 µM NOTA-PEG2-RM26, p < 0.0001, n = 3", "value": "significant difference"}, {"measurement": "Binding to non-blocked GRPR versus pre-blocked GRPR on PC-3 cells", "setting": "GRPR on PC-3 cells; kit stored for 18 months, purified with Sep-Pak, pre-blocking with 1 µM NOTA-PEG2-RM26", "value": "significantly higher"}, {"measurement": "Difference in PC-3 tumor uptake between non-blocked and blocked groups", "setting": "GRPR [3]", "value": 6, "unit": "fold"}, {"measurement": "Difference in pancreatic uptake between non-blocked and blocked groups", "setting": "GRPR [4]", "value": 4, "unit": "fold"}, {"measurement": "tissue uptake at 1 h", "setting": "[5]; Balb/c nu/nu, blood, PC-3 xenografts, 40 pmol / 30 kBq co-injected with 5 nmol NOTA-PEG2-RM26, average ± SD, read-out: Uptake in blood, blocked", "value": "0.3 ± 0.4", "unit": "%ID/g"}, {"measurement": "tissue uptake at 1 h", "setting": "[5]; Balb/c nu/nu, bone, PC-3 xenografts, 40 pmol / 30 kBq co-injected with 5 nmol NOTA-PEG2-RM26, average ± SD, read-out: Uptake in bone, blocked", "value": "0.042 ± 0.009", "unit": "%ID/g"}, {"measurement": "tissue uptake at 1 h", "setting": "[5]; Balb/c nu/nu, kidneys, PC-3 xenografts, 40 pmol / 30 kBq co-injected with 5 nmol NOTA-PEG2-RM26, average ± SD, read-out: Uptake in kidneys, blocked", "value": "5 ± 0.6", "unit": "%ID/g"}, {"measurement": "tissue uptake at 1 h", "setting": "[5]; Balb/c nu/nu, liver, PC-3 xenografts, 40 pmol / 30 kBq co-injected with 5 nmol NOTA-PEG2-RM26, average ± SD, read-out: Uptake in liver, blocked", "value": "1.7 ± 0.4", "unit": "%ID/g"}, {"measurement": "tissue uptake at 1 h", "setting": "[5]; Balb/c nu/nu, muscle, PC-3 xenografts, 40 pmol / 30 kBq co-injected with 5 nmol NOTA-PEG2-RM26, average ± SD, read-out: Uptake in muscle, blocked", "value": "0.032 ± 0.008", "unit": "%ID/g"}, {"measurement": "tissue uptake at 1 h", "setting": "[5]; Balb/c nu/nu, pancreas, PC-3 xenografts, 40 pmol / 30 kBq co-injected with 5 nmol NOTA-PEG2-RM26, average ± SD, read-out: Uptake in pancreas, blocked", "value": "1.4 ± 0.1", "unit": "%ID/g"}, {"measurement": "tissue uptake at 1 h", "setting": "[5]; Balb/c nu/nu, spleen, PC-3 xenografts, 40 pmol / 30 kBq co-injected with 5 nmol NOTA-PEG2-RM26, average ± SD, read-out: Uptake in spleen, blocked", "value": "0.13 ± 0.06", "unit": "%ID/g"}, {"measurement": "tissue to tissue ratio at 1 h", "setting": "[5]; Balb/c nu/nu, tumor and blood, PC-3 xenografts, read-out: Tumor-to-blood ratio, non-blocked group", "value": "30 ± 4"}, {"measurement": "tissue to tissue ratio at 1 h", "setting": "[5]; Balb/c nu/nu, tumor and bone, PC-3 xenografts, read-out: Tumor-to-bone ratio, non-blocked group", "value": "78 ± 42"}, {"measurement": "tissue to tissue ratio at 1 h", "setting": "[5]; Balb/c nu/nu, tumor and kidneys, PC-3 xenografts, read-out: Tumor-to-kidneys ratio, non-blocked group", "value": "1.3 ± 0.2"}, {"measurement": "tissue to tissue ratio at 1 h", "setting": "[5]; Balb/c nu/nu, tumor and liver, PC-3 xenografts, read-out: Tumor-to-liver ratio, non-blocked group", "value": "2 ± 0.4"}, {"measurement": "tissue to tissue ratio at 1 h", "setting": "[5]; Balb/c nu/nu, tumor and muscle, PC-3 xenografts, read-out: Tumor-to-muscle ratio, non-blocked group", "value": "125 ± 50"}, {"measurement": "tissue to tissue ratio at 1 h", "setting": "[5]; Balb/c nu/nu, tumor and pancreas, PC-3 xenografts, read-out: Tumor-to-pancreas ratio, non-blocked group", "value": "1.1 ± 0.2"}, {"measurement": "tissue to tissue ratio at 1 h", "setting": "[5]; Balb/c nu/nu, tumor and spleen, PC-3 xenografts, read-out: Tumor-to-spleen ratio, non-blocked group", "value": "51 ± 18"}, {"measurement": "tissue uptake at 1 h", "setting": "[5]; Balb/c nu/nu, tumor, PC-3 xenografts, 40 pmol / 30 kBq co-injected with 5 nmol NOTA-PEG2-RM26, average ± SD, read-out: Uptake in tumor, blocked", "value": "0.89 ± 0.07", "unit": "%ID/g"}, {"measurement": "tissue uptake at 1 h", "setting": "[5]; blood, Balb/c nu/nu mice with PC-3 xenografts, 40 pmol / 30 kBq, kit stored 18 months, average ± SD, read-out: Uptake in blood, non-blocked", "value": "0.3 ± 0.2", "unit": "%ID/g"}, {"measurement": "tissue uptake at 1 h", "setting": "[5]; bone, Balb/c nu/nu mice with PC-3 xenografts, 40 pmol / 30 kBq, kit stored 18 months, average ± SD, read-out: Uptake in bone, non-blocked", "value": "0.09 ± 0.05", "unit": "%ID/g"}, {"measurement": "tissue uptake at 1 h", "setting": "[5]; kidneys, Balb/c nu/nu mice with PC-3 xenografts, 40 pmol / 30 kBq, kit stored 18 months, average ± SD, read-out: Uptake in kidneys, non-blocked", "value": "5 ± 0.4", "unit": "%ID/g"}, {"measurement": "tissue uptake at 1 h", "setting": "[5]; liver, Balb/c nu/nu mice with PC-3 xenografts, 40 pmol / 30 kBq, kit stored 18 months, average ± SD, read-out: Uptake in liver, non-blocked", "value": "2.9 ± 0.8", "unit": "%ID/g"}, {"measurement": "tissue uptake at 1 h", "setting": "[5]; muscle, Balb/c nu/nu mice with PC-3 xenografts, 40 pmol / 30 kBq, kit stored 18 months, average ± SD, read-out: Uptake in muscle, non-blocked", "value": "0.05 ± 0.02", "unit": "%ID/g"}, {"measurement": "tissue uptake at 1 h", "setting": "[5]; pancreas, Balb/c nu/nu mice with PC-3 xenografts, 40 pmol / 30 kBq, kit stored 18 months, average ± SD, read-out: Uptake in pancreas, non-blocked", "value": "6 ± 1", "unit": "%ID/g"}, {"measurement": "tissue uptake at 1 h", "setting": "[5]; spleen, Balb/c nu/nu mice with PC-3 xenografts, 40 pmol / 30 kBq, kit stored 18 months, average ± SD, read-out: Uptake in spleen, non-blocked", "value": "0.13 ± 0.05", "unit": "%ID/g"}, {"measurement": "tissue uptake at 1 h", "setting": "[5]; tumor, Balb/c nu/nu mice with PC-3 xenografts, 40 pmol / 30 kBq, kit stored 18 months, average ± SD, read-out: Uptake in tumor, non-blocked", "value": "6 ± 1", "unit": "%ID/g"}]}]}
